# Laboratory results taken from PubChem BioAssay (NCI).
#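 1) Cells in 96-well plates. 2) Compound, 48 h, 5 concentrations. 3) Linear interpolation between surrounding doses. 4) Unreached endpoint = highest concentration. TGI marks complete inhibition of growth.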
# How the values were obtained:
# Experiment in all cases: inhibition of tumour cell growth, NCI panel, 48 h
# [1] = test system: U251 CNS
# [2] = test system: SF-295 CNS
# [3] = test system: DU-145 prostate
# [4] = test system: MALME-3M melanoma
# [5] = test system: KM12 colon
# [6] = test system: SK-MEL-2 melanoma
# [7] = test system: SNB-19 CNS
# [8] = test system: NCI-H460 lung
# [9] = test system: K-562 leukemia
# [10] = test system: UACC-257 melanoma
# [11] = test system: SK-OV-3 ovarian
# [12] = test system: HCT-15 colon
# [13] = test system: M14 melanoma
# [14] = test system: MDA-MB-231 breast
# [15] = test system: CAKI-1 renal
# [16] = test system: SNB-75 CNS
# [17] = test system: OVCAR-5 ovarian
# [18] = test system: HCT-116 colon
# [19] = test system: HOP-92 NSCLC
# [20] = test system: TK-10 renal
# [21] = test system: 786-0 renal
# [22] = test system: MOLT-4 leukemia
# [23] = test system: SN12C renal
# [24] = test system: BT-549 breast
# [25] = test system: MDA-MB-435
# [26] = test system: A549 NSCLC
# [27] = test system: HT29 colon
# [28] = test system: LOX IMVI melanoma
# [29] = test system: NCI-H226 lung
# [30] = test system: NCI-H522 lung
# [31] = test system: T-47D breast
# [32] = test system: UACC-62 melanoma
# [33] = test system: SK-MEL-5 melanoma
# [34] = test system: PC-3 prostate
# [35] = test system: SK-MEL-28 melanoma
# [36] = test system: OVCAR-8 ovarian
# [37] = test system: EKVX NSCLC
# [38] = test system: OVCAR-4 ovarian
# [39] = test system: HOP-62 NSCLC
# [40] = test system: HL-60(TB) leukemia
# [41] = test system: SW-620 colon
# [42] = test system: IGROV1 ovarian
# [43] = test system: A498 renal
# [44] = test system: RXF 393 renal
# [45] = test system: SF-268 CNS
# [46] = test system: OVCAR-3 ovarian
# [47] = test system: ACHN renal
# [48] = test system: NCI/ADR-RES ovarian
# [49] = test system: COLO 205 colon
# [50] = test system: CCRF-CEM leukemia
# [51] = test system: MCF7 breast
# [52] = test system: HCC-2998 colon
# [53] = test system: UO-31 renal
# [54] = test system: SF-539 CNS
# [55] = test system: MDA-N
# [56] = test system: HS 578T breast
# [57] = test system: NCI-H23 lung
# [58] = test system: SR leukemia
# [59] = test system: RPMI-8226 leukemia
smiles,measurement,setting,value
Cc1cc(C)c2c(=O)n(CN3CCN(c4ccccc4)CC3)sc2n1,TGI,[1],56.2 µM
same,TGI,[2],> 100 µM
same,TGI,[3],63.3 µM
same,TGI,[4],> 100 µM
same,TGI,[5],> 100 µM
same,TGI,[6],33.9 µM
same,TGI,[7],> 100 µM
same,TGI,[8],> 100 µM
same,TGI,[9],> 100 µM
same,TGI,[10],> 100 µM
same,TGI,[11],> 100 µM
same,TGI,[12],50.7 µM
same,TGI,[13],76.6 µM
same,TGI,[14],39.5 µM
same,TGI,[15],39.4 µM
same,TGI,[16],42.7 µM
same,TGI,[17],49.2 µM
same,TGI,[18],35.1 µM
same,TGI,[19],> 100 µM
same,TGI,[20],> 100 µM
same,TGI,[21],31.4 µM
same,TGI,[22],58.7 µM
same,TGI,[23],87 µM
same,TGI,[24],> 100 µM
same,TGI,[25],> 100 µM
same,TGI,[26],> 100 µM
same,TGI,[27],34.6 µM
same,TGI,[28],44.1 µM
same,TGI,[29],> 100 µM
same,TGI,[30],32.5 µM
same,TGI,[31],33.8 µM
same,TGI,[32],> 100 µM
same,TGI,[33],> 100 µM
same,TGI,[34],40.5 µM
same,TGI,[35],> 100 µM
same,TGI,[36],> 100 µM
same,TGI,[37],70.1 µM
same,TGI,[38],> 100 µM
same,TGI,[39],> 100 µM
same,TGI,[40],41.5 µM
same,TGI,[41],> 100 µM
same,TGI,[42],> 100 µM
same,TGI,[43],> 100 µM
same,TGI,[44],25.7 µM
same,TGI,[45],> 100 µM
same,TGI,[46],99.6 µM
same,TGI,[47],35.2 µM
same,TGI,[48],52.7 µM
same,TGI,[49],41.3 µM
same,TGI,[50],> 100 µM
same,TGI,[51],> 100 µM
same,TGI,[52],> 100 µM
same,TGI,[53],40.7 µM
same,TGI,[54],37.5 µM
same,TGI,[55],60.4 µM
same,TGI,[56],> 100 µM
same,TGI,[57],85.2 µM
CCOC(=O)CCC(NC(=O)N1CCN(c2c(C)nc(C)[nH]c2=O)CC1)C(=O)OCC (stereo not given),TGI,[1],> 100 µM
same,TGI,[2],> 100 µM
same,TGI,[3],> 100 µM
same,TGI,[4],> 100 µM
same,TGI,[5],> 100 µM
same,TGI,[7],> 100 µM
same,TGI,[8],> 100 µM
same,TGI,[9],> 100 µM
same,TGI,[10],> 100 µM
same,TGI,[11],> 100 µM
same,TGI,[12],> 100 µM
same,TGI,[13],> 100 µM
same,TGI,[14],> 100 µM
same,TGI,[58],> 100 µM
same,TGI,[15],> 100 µM
same,TGI,[17],> 100 µM
same,TGI,[18],> 100 µM
same,TGI,[19],> 100 µM
same,TGI,[20],> 100 µM
same,TGI,[21],> 100 µM
same,TGI,[22],> 100 µM
same,TGI,[23],> 100 µM
same,TGI,[24],> 100 µM
same,TGI,[25],> 100 µM
same,TGI,[26],> 100 µM
same,TGI,[27],> 100 µM
same,TGI,[28],> 100 µM
same,TGI,[29],> 100 µM
same,TGI,[30],> 100 µM
same,TGI,[31],> 100 µM
same,TGI,[32],> 100 µM
same,TGI,[34],> 100 µM
same,TGI,[35],> 100 µM
same,TGI,[36],> 100 µM
same,TGI,[59],> 100 µM
same,TGI,[37],> 100 µM
same,TGI,[38],> 100 µM
same,TGI,[39],> 100 µM
same,TGI,[40],> 100 µM
same,TGI,[41],> 100 µM
same,TGI,[42],> 100 µM
same,TGI,[43],> 100 µM
same,TGI,[44],> 100 µM
same,TGI,[45],> 100 µM
same,TGI,[46],> 100 µM
same,TGI,[47],> 100 µM
same,TGI,[48],> 100 µM
same,TGI,[49],> 100 µM
same,TGI,[50],> 100 µM
same,TGI,[51],> 100 µM
same,TGI,[52],> 100 µM
same,TGI,[53],> 100 µM
same,TGI,[54],> 100 µM
same,TGI,[55],> 100 µM
same,TGI,[56],> 100 µM
same,TGI,[57],> 100 µM
Nc1ccc(-c2nc3cc(F)ccc3s2)cc1Br,TGI,[1],57.8 µM
same,TGI,[2],> 100 µM
same,TGI,[3],> 100 µM
same,TGI,[4],> 100 µM
same,TGI,[5],> 100 µM
same,TGI,[6],> 100 µM
same,TGI,[7],> 100 µM
same,TGI,[8],> 46 µM
same,TGI,[9],> 100 µM
same,TGI,[10],> 100 µM
same,TGI,[11],> 100 µM
same,TGI,[12],> 65.1 µM
same,TGI,[13],> 100 µM
same,TGI,[14],> 73.2 µM
same,TGI,[15],> 100 µM
same,TGI,[16],77.9 µM
same,TGI,[17],> 100 µM
same,TGI,[18],> 100 µM
same,TGI,[19],> 100 µM
same,TGI,[21],> 100 µM
same,TGI,[22],> 100 µM
same,TGI,[23],> 100 µM
same,TGI,[24],> 74.1 µM
same,TGI,[25],> 100 µM
same,TGI,[26],> 100 µM
same,TGI,[27],> 100 µM
same,TGI,[28],> 100 µM
same,TGI,[30],> 100 µM
same,TGI,[31],> 100 µM
same,TGI,[32],> 100 µM
same,TGI,[33],> 100 µM
same,TGI,[34],> 100 µM
same,TGI,[35],> 100 µM
same,TGI,[36],> 100 µM
same,TGI,[59],> 100 µM
same,TGI,[37],> 63.6 µM
same,TGI,[38],> 100 µM
same,TGI,[39],> 100 µM
same,TGI,[40],> 100 µM
same,TGI,[41],> 100 µM
same,TGI,[42],> 37.2 µM
same,TGI,[43],> 100 µM
same,TGI,[44],> 100 µM
same,TGI,[45],> 100 µM
same,TGI,[46],> 100 µM
same,TGI,[47],> 100 µM
same,TGI,[48],> 100 µM
same,TGI,[49],> 100 µM
same,TGI,[50],> 100 µM
same,TGI,[51],0.528 µM
same,TGI,[52],0.0345 µM
same,TGI,[53],> 100 µM
same,TGI,[54],> 71.4 µM
same,TGI,[55],> 100 µM
same,TGI,[56],> 100 µM
Cn1c2c(c3c(=O)[nH]ncc31)CCc1ccccc1-2,TGI,[1],> 100 µM
same,TGI,[2],> 100 µM
same,TGI,[3],> 100 µM
same,TGI,[4],88.5 µM
same,TGI,[5],54.9 µM
same,TGI,[6],57.1 µM
same,TGI,[7],> 100 µM
same,TGI,[8],33.6 µM
same,TGI,[9],> 100 µM
same,TGI,[10],40.6 µM
same,TGI,[11],> 100 µM
same,TGI,[12],67.3 µM
same,TGI,[13],41.7 µM
same,TGI,[14],47.3 µM
same,TGI,[58],55.2 µM
same,TGI,[15],> 100 µM
same,TGI,[16],87.8 µM
same,TGI,[17],> 100 µM
same,TGI,[18],64.2 µM
same,TGI,[19],> 100 µM
same,TGI,[20],45.3 µM
same,TGI,[21],73.4 µM
same,TGI,[22],75 µM
same,TGI,[23],> 100 µM
same,TGI,[24],78.2 µM
same,TGI,[25],> 100 µM
same,TGI,[26],> 100 µM
same,TGI,[27],> 100 µM
same,TGI,[28],35 µM
same,TGI,[29],94.4 µM
same,TGI,[30],> 100 µM
same,TGI,[31],> 100 µM
same,TGI,[33],35.1 µM
same,TGI,[34],> 100 µM
same,TGI,[35],70.8 µM
same,TGI,[36],> 100 µM
same,TGI,[59],67.4 µM
same,TGI,[37],> 100 µM
same,TGI,[38],> 100 µM
same,TGI,[39],> 100 µM
same,TGI,[40],60.6 µM
same,TGI,[41],> 100 µM
same,TGI,[42],60.2 µM
same,TGI,[43],45.7 µM
same,TGI,[44],39.6 µM
same,TGI,[45],> 100 µM
same,TGI,[46],72.2 µM
same,TGI,[47],72.4 µM
same,TGI,[48],89 µM
same,TGI,[49],81.1 µM
same,TGI,[50],60.7 µM
same,TGI,[51],79 µM
same,TGI,[53],59.1 µM
same,TGI,[54],> 100 µM
same,TGI,[55],91 µM
same,TGI,[56],> 100 µM
same,TGI,[57],71.4 µM
